According to BindingDB's records for doi:10.7270/Q2F18X40 (Nmmlsc, 2009):

What follows are compounds tested against Ras-related protein Rab-7a (Canis lupus familiaris, UniProt P18067) (assay: Rab7 GTP binding inhibitors, analog potency, SAR follow-up, biochemical, oxadiazole analogs, multiplex bead flow cytometry (AID 2031)). Details: inactive by the depositor's call.
Ras-related protein Rab-7a, sequence (P18067 whole entry): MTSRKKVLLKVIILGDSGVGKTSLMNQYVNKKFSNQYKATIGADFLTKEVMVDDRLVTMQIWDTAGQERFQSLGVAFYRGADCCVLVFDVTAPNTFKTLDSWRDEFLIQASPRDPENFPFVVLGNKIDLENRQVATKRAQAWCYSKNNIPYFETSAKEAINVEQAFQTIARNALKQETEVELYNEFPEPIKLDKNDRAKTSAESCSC

| Structure (SMILES) | EC50 |
| --- | --- |
| Cc1cccc(-c2noc(CCC(=O)N3CCN(c4cc(C)ccc4C)CC3)n2)c1 [1-[4-(2,5-dimethylphenyl)piperazin-1-yl]-3-[3-(3-methylphenyl)-1,2,4-oxadiazol-5-yl]propan-1-one] | 1.03 µM |
| Cc1ccc(-c2noc(CCC(=O)N3CCN(c4cc(C)ccc4C)CC3)n2)cc1 [1-[4-(2,5-dimethylphenyl)-1-piperazinyl]-3-[3-(4-methylphenyl)-1,2,4-oxadiazol-5-yl]-1-propanone] | 4.39 µM |
| COc1ccc(-c2noc(CCC(=O)N3CCN(c4cccc(C)c4C)CC3)n2)cc1 [1-[4-(2,3-dimethylphenyl)-1-piperazinyl]-3-[3-(4-methoxyphenyl)-1,2,4-oxadiazol-5-yl]-1-propanone] | 1.56 µM |
| COc1ccc(-c2noc(CCC(=O)N3CCN(c4cccc(F)c4)CC3)n2)cc1 [1-[4-(3-fluorophenyl)piperazin-1-yl]-3-[3-(4-methoxyphenyl)-1,2,4-oxadiazol-5-yl]propan-1-one] | 30 µM |
| COc1cccc(-c2noc(CCC(=O)N3CCN(c4cc(C)ccc4C)CC3)n2)c1 | 3.43 µM |
| Cc1ccc(C)c(N2CCN(C(=O)CCc3nc(-c4ccccc4C(F)(F)F)no3)CC2)c1 | 30 µM |
| COc1ccc(-c2noc(CCC(=O)N3CCN(c4ccccc4)CC3)n2)cc1 [3-[3-(4-methoxyphenyl)-1,2,4-oxadiazol-5-yl]-1-(4-phenylpiperazin-1-yl)propan-1-one] | 30 µM |
| COc1ccc(-c2ccc(CCC(=O)N3CCN(c4cc(C)ccc4C)CC3)[nH]2)cc1 [1-[4-(2,5-dimethylphenyl)piperazin-1-yl]-3-[5-(4-methoxyphenyl)-1H-pyrrol-2-yl]propan-1-one] | 30 µM |
| COc1ccc(-c2noc(CCC(=O)N3CCN(c4ccccc4F)CC3)n2)cc1 [1-[4-(2-fluorophenyl)piperazin-1-yl]-3-[3-(4-methoxyphenyl)-1,2,4-oxadiazol-5-yl]propan-1-one] | 0.632 µM |
| COc1ccc(-c2noc(CC(=O)N3CCN(c4cc(C)ccc4C)CC3)n2)cc1 [1-[4-(2,5-dimethylphenyl)piperazin-1-yl]-2-[3-(4-methoxyphenyl)-1,2,4-oxadiazol-5-yl]ethanone] | 30 µM |
| COc1ccc(-c2noc(CCC(=O)N3CCN(c4ccc(Br)cc4)CC3)n2)cc1 [1-[4-(4-bromophenyl)piperazin-1-yl]-3-[3-(4-methoxyphenyl)-1,2,4-oxadiazol-5-yl]propan-1-one] | 30 µM |
| COc1ccc(-c2noc(CCC(=O)N3CCN(c4ccccc4Cl)CC3)n2)cc1 [1-[4-(2-chlorophenyl)piperazin-1-yl]-3-[3-(4-methoxyphenyl)-1,2,4-oxadiazol-5-yl]propan-1-one] | 2.28 µM |
| COc1ccc(-c2noc(CCCCC(=O)N3CCN(c4cc(C)ccc4C)CC3)n2)cc1 [1-[4-(2,5-dimethylphenyl)-1-piperazinyl]-5-[3-(4-methoxyphenyl)-1,2,4-oxadiazol-5-yl]-1-pentanone] | 30 µM |
| Cc1ccc(C)c(N2CCN(C(=O)CCc3nc(-c4ccc(C(F)(F)F)cc4)no3)CC2)c1 [1-[4-(2,5-dimethylphenyl)-1-piperazinyl]-3-[3-[4-(trifluoromethyl)phenyl]-1,2,4-oxadiazol-5-yl]-1-propanone] | 30 µM |
| COc1ccc(-c2noc(CCC(=O)N3CCN(c4ccccc4C)CC3)n2)cc1 | 30 µM |
| COc1ccc(-c2ccc(CCC(=O)N3CCN(c4cc(C)ccc4C)CC3)s2)cc1 | 30 µM |
| Cc1ccc(C)c(N2CCN(C(=O)CCc3nc(-c4ccccc4C)no3)CC2)c1 | 5.46 µM |
| Cc1ccc(C)c(N2CCN(C(=O)CCc3nc(-c4ccccc4Cl)no3)CC2)c1 [3-[3-(2-chlorophenyl)-1,2,4-oxadiazol-5-yl]-1-[4-(2,5-dimethylphenyl)-1-piperazinyl]-1-propanone] | 30 µM |
| COc1ccc(-c2noc(CCC(=O)N3CCN(c4cccc(Br)c4)CC3)n2)cc1 [1-[4-(3-bromophenyl)-1-piperazinyl]-3-[3-(4-methoxyphenyl)-1,2,4-oxadiazol-5-yl]-1-propanone] | 30 µM |
| COc1ccc(-c2noc(CCC(=O)N3CCN(c4ccccc4OC)CC3)n2)cc1 [3-[3-(4-methoxyphenyl)-1,2,4-oxadiazol-5-yl]-1-[4-(2-methoxyphenyl)-1-piperazinyl]-1-propanone] | 30 µM |
| COc1ccc(-c2noc(CCC(=O)N3CCN(c4cc(C)ccc4C)CC3)n2)cc1 [1-[4-(2,5-dimethylphenyl)-1-piperazinyl]-3-[3-(4-methoxyphenyl)-1,2,4-oxadiazol-5-yl]-1-propanone] | 2.39 µM |
| Cc1ccc(C)c(N2CCN(C(=O)CCc3nc(-c4ccccc4Br)no3)CC2)c1 [3-[3-(2-bromophenyl)-1,2,4-oxadiazol-5-yl]-1-[4-(2,5-dimethylphenyl)-1-piperazinyl]-1-propanone] | 4.2 µM |
| COc1ccc(-c2noc(CCC(=O)N3CCN(c4cccc(Cl)c4)CC3)n2)cc1 | 31 µM |
| COc1ccc(-c2cc(CCC(=O)N3CCN(c4cc(C)ccc4C)CC3)on2)cc1 [1-[4-(2,5-dimethylphenyl)piperazin-1-yl]-3-[3-(4-methoxyphenyl)-1,2-oxazol-5-yl]propan-1-one] | 0.305 µM |
| COc1ccc(-c2coc(CCC(=O)N3CCN(c4cc(C)ccc4C)CC3)n2)cc1 [1-[4-(2,5-dimethylphenyl)piperazin-1-yl]-3-[4-(4-methoxyphenyl)-1,3-oxazol-2-yl]propan-1-one] | 30 µM |
| COc1ccc(-c2noc(CCC(=O)N3CCN(c4cccc(C(F)(F)F)c4)CC3)n2)cc1 [1-{3-[3-(4-methoxyphenyl)-1,2,4-oxadiazol-5-yl]propanoyl}-4-[3-(trifluoromethyl)phenyl]piperazine] | 30 µM |

More lines, now with the values ahead:

| EC50 | Structure (SMILES) |
| --- | --- |
| 3.51 µM | Cc1ccc(C)c(N2CCN(C(=O)CCc3nc(-c4cccc(Br)c4)no3)CC2)c1 [KUC103367N] |
| 1.33 µM | COc1ccc(-c2noc(CCC(=O)N3CCC(c4cc(C)ccc4C)CC3)n2)cc1 [KUC103432N] |
| 0.664 µM | Cc1ccc(C)c(N2CCN(C(=O)CCc3nc(-c4ccc(F)cc4)no3)CC2)c1 [KUC103364N] |
| 30 µM | COc1ccc(-c2noc(CCC(=O)N3CCN(c4ccc(F)cc4)CC3)n2)cc1 [KUC103398N] |
| 30 µM | Cc1ccc(C)c(N2CCN(C(=O)CCc3nc(-c4ccccc4F)no3)CC2)c1 [KUC103401N] |
| 2.24 µM | COc1ccc(-c2noc(CCC(=O)N3CCN(c4ccccc4Br)CC3)n2)cc1 [KUC103370N] |
| 2.91 µM | Cc1ccc(C)c(N2CCN(C(=O)CCc3nc(-c4ccc(Cl)cc4)no3)CC2)c1 [UNM-0000306083] |
| 1.95 µM | COc1ccc(-c2noc(CCC(=O)N3CCN(c4ccccc4C(F)(F)F)CC3)n2)cc1 [UNM-0000306082] |
| 30 µM | Cc1ccc(C)c(N2CCN(C(=O)CCc3nc(-c4cccc(Cl)c4)no3)CC2)c1 [UNM-0000306086] |
| 30 µM | COc1ccc(-c2noc(CCC(=O)N3CCN(c4ccc(C(F)(F)F)cc4)CC3)n2)cc1 [3-[3-(4-methoxyphenyl)-1,2,4-oxadiazol-5-yl]-1-[4-[4-(trifluoromethyl)phenyl]piperazin-1-yl]propan-1-one] |
| 30 µM | COc1ccc(-c2noc(CCC(=O)N3CCN(c4ccc(OC)cc4)CC3)n2)cc1 [3-[3-(4-methoxyphenyl)-1,2,4-oxadiazol-5-yl]-1-[4-(4-methoxyphenyl)piperazin-1-yl]propan-1-one] |
| 30 µM | COc1ccc(-c2noc(CCC(=O)N3CCN(c4cccc(C)c4)CC3)n2)cc1 [UNM-0000306125] |
| 30 µM | COc1ccc(-c2ccc(CCC(=O)N3CCN(c4cc(C)ccc4C)CC3)o2)cc1 [KUC103447N] |
| 30 µM | COc1ccccc1-c1noc(CCC(=O)N2CCN(c3cc(C)ccc3C)CC2)n1 [UNM-0000306071] |
| 30 µM | COc1ccc(-c2cccc(CCC(=O)N3CCN(c4cc(C)ccc4C)CC3)c2)cc1 [UNM-0000306127] |
| 1.16 µM | Cc1ccc(C)c(N2CCN(C(=O)CCc3nc(-c4ccccc4)no3)CC2)c1 [UNM-0000306070] |
| 30 µM | COc1ccc(-c2noc(CCC(=O)N3CCN(c4ccc(Cl)cc4)CC3)n2)cc1 [UNM-0000306121] |
| 14.4 µM | COc1ccc(-c2noc(CCCC(=O)N3CCN(c4cc(C)ccc4C)CC3)n2)cc1 [KUC103353N] |
| 30 µM | COc1ccc(-c2noc(CCC(=O)N3CCN(c4cccc(OC)c4)CC3)n2)cc1 [KUC103349N] |
| 30 µM | COc1ccc(-c2cc(CCC(=O)N3CCN(c4cc(C)ccc4C)CC3)[nH]n2)cc1 [UNM-0000306150] |
| 0.708 µM | Cc1ccc(C)c(N2CCN(C(=O)CCc3nc(-c4cccc(C(F)(F)F)c4)no3)CC2)c1 [KUC103380N] |
| 30 µM | COc1ccc(-c2noc(CCC(=O)N3CCN(c4ccc(C)cc4)CC3)n2)cc1 [3-[3-(4-methoxyphenyl)-1,2,4-oxadiazol-5-yl]-1-[4-(4-methylphenyl)piperazin-1-yl]propan-1-one] |
| 30 µM | Cc1ccc(C)c(N2CCN(C(=O)CCc3nc(-c4ccc(N(C)C)cc4)no3)CC2)c1 [KUC103409N] |
| 7.85 µM | Cc1ccc(C)c(N2CCN(C(=O)CCc3nc(-c4cccc(F)c4)no3)CC2)c1 [KUC103366N] |
| 1.6 µM | Cc1ccc(C)c(N2CCN(C(=O)CCc3nc(-c4ccc(Br)cc4)no3)CC2)c1 [UNM-0000306072] |
